This note sets out measurements from patent US20060069132A1, “Azolecarboxamide herbicides” (priority 2004, published 2006).

One assay deals with chickweed. The assay can be described thus: Test C postemergence herbicide test. The note with it: for Chickweed plant response rating: 500 g ai/ha. The format is in vivo, Stellaria media. As to the method:
At the same time, plants selected from these crop and weed species and also winter barley (Hordeum vulgare L.), blackgrass (Alopecurus myosuroides Huds.), canarygrass (Phalaris minor Retz.), chickweed (Stellaria media (L.) Vill.), downy bromegrass (Bromus tectorum L.), green foxtail (Setaria viridis (L.) Beauv.), Italian ryegrass (Lolium multiflorum Lam.), wheat (Triticum aestivum L.), wild oat (Avenafatua L.) and windgrass (Apera spica-venti (L.) Beauv.) were treated with postemergence applications of some of the test chemicals formulated in the same manner. Plants ranged in height from 2 to 18 cm (1- to 4-leaf stage) for postemergence treatments. Plant species in the flooded paddy test consisted of rice (Oryza sativa), smallflower umbrella sedge (Cyperus difformis L.), ducksalad (Heteranthera limosa (Sw.) Willd.) and barnyardgrass (Echinochloa crus-galli (L.) Beauv.) grown to the 2-leaf stage for testing. Treated plants and controls were maintained in a greenhouse for 12 to 14 days, after which time all species were compared to controls and visually evaluated. Plant response ratings, summarized in Table C, are based on a scale of 0 to 100 where 0 is no effect and 100 is complete control. A dash (-) response means no test result.

In another assay the test system is johnsongrass. The assay can be described thus: Test C pre-/postemergence herbicide test. The format is in vivo, Sorghum halepense. The method, boiled down: (§1)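 Preemergence: seeds planted and treated with compound in non-phytotoxic solvent with surfactant; postemergence: plants at 2 to 18 cm (1- to 4-leaf stage) sprayed likewise. Kept in greenhouse 12 to 14 days, then visually rated against controls, 0 (no effect) to 100 (complete control).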

The test system of the next assay is eastern black nightshade. The assay can be described thus: Test C pre-/postemergence herbicide test. The format is in vivo, Solanum ptycanthum. The conditions noted are these: for Nightshade plant response rating: Preemergence, scale 0 to 100, 0 no effect, 100 complete control. The method, boiled down:
as §1

In another assay the test system is barnyardgrass. As to the kind of experiment: Test C flooded paddy test. Type of assay: in vivo, Echinochloa crus-galli. The method, boiled down: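 Postemergence sprays were applied to plants 2 to 18 cm tall (1- to 4-leaf stage); in the flooded paddy test, barnyardgrass was grown to the 2-leaf stage. After 12 to 14 days in a greenhouse, injury was visually rated against untreated controls on a 0–100 scale (100 = complete control).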

Where [1] appears, read: Postemergence, 250 g ai/ha, scale 0 to 100, 0 no effect, 100 complete control.
Where [2] appears, read: postemergence, 125 g ai/ha, scale 0 to 100.
The mark [3] stands for this setting: postemergence, 62 g ai/ha, scale 0 to 100.
[4] abbreviates: Postemergence, 500 g ai/ha, scale 0 to 100.
The mark [5] stands for this setting: Postemergence, 125 g ai/ha, scale 0 to 100, 0 no effect, 100 complete control.
Where [6] appears, read: postemergence, 31 g ai/ha, scale 0 to 100.
Where [7] appears, read: 31 g ai/ha, preemergence, scale 0 to 100.
[8] abbreviates: 250 g ai/ha, scale 0 to 100 (0 no effect, 100 complete control), visual, 12 to 14 days, preemergence.
[9] abbreviates: Preemergence, 500 g ai/ha, scale 0 to 100, 0 no effect, 100 complete control.
Setting [10] is: 125 g ai/ha, scale 0 (no effect) to 100 (complete control), visual, 12 to 14 days, preemergence.
[11] abbreviates: 62 g ai/ha, preemergence, scale 0 to 100.

As to `CCCCOC(=O)c1cccc(NC(=O)c2cc(C(C)(C)C)nn2CC)c1` [Compound 86], in the assay on chickweed (Postemergence, scale 0 to 100), the “Chickweed plant response rating” value was 100. Further, the “Plant response rating, Chickweed” value with chickweed (setting [1]), in the assay with chickweed (setting [2]) and in the assay with chickweed (setting [3]) was 100 throughout. The “Johnsongrass plant response rating” value with johnsongrass (setting [4]) is 30. The “Plant response rating, Johnsongrass” value in the assay on johnsongrass (setting [1]) and in the assay with johnsongrass (setting [3]) was 10 in each case.

As to `C=Cn1nc(C(C)(C)C)cc1C(=O)Nc1cccc(C(=O)NCC)c1` [Compound 33], the “Plant response rating, Chickweed” value with chickweed (setting [5]) came out at 100; with chickweed (postemergence, 16 g ai/ha, scale 0 to 100), 30; with chickweed (setting [6]), 40; in the assay with chickweed (setting [3]) it was 90. In addition, the “Plant response rating, Johnsongrass” value with johnsongrass (setting [7]) is given as 20; in the assay on johnsongrass (125 g ai/ha, scale 0-100, preemergence) it was 80; in the assay with johnsongrass (setting [5]), 90; with johnsongrass (setting [6]), 70; in the assay with johnsongrass (setting [3]), 90. In the assay with johnsongrass (62 g ai/ha, preemergence), the “Plant response rating (0 = no effect, 100 = complete control), Johnsongrass” value is 20. The “Plant response rating, Nightshade” value in the assay on eastern black nightshade (setting [7]) stood at 10. Further, the “Plant response rating (0 = no effect, 100 = complete control), Nightshade” value in the assay with eastern black nightshade (62 g ai/ha, preemergence) is listed as 60.

`C#CCn1nc(C(C)(C)C)cc1C(=O)Nc1cccc(C(=O)NCC)c1` [Compound 50]: in the assay with chickweed (Postemergence, scale 0 to 100), the “Chickweed plant response rating” value is recorded as 0. Besides, the “Plant response rating, Chickweed” value in the assay on chickweed (setting [5]), with chickweed (setting [1]) and in the assay on chickweed (setting [3]) was 0 in each case. In addition, the “Plant response rating (0 = no effect, 100 = complete control), Johnsongrass” value in the assay with johnsongrass (62 g ai/ha, preemergence) is reported as 0. The “Plant response rating, Johnsongrass” value in the assay on johnsongrass (setting [8]), in the assay on johnsongrass (setting [5]), with johnsongrass (setting [1]) and in the assay with johnsongrass (setting [3]) was 0 each time. Also, the “Johnsongrass plant response rating” value with johnsongrass (setting [4]) and with johnsongrass (setting [9]) was 0 throughout. The “Plant response rating (0 = no effect, 100 = complete control), Nightshade” value in the assay on eastern black nightshade (62 g ai/ha, preemergence) stood at 0. The “Plant response rating, Nightshade” value with eastern black nightshade (setting [10]) is reported as 5; in the assay with eastern black nightshade (setting [8]), 80. In addition, the “Nightshade plant response rating” value in the assay with eastern black nightshade (500 g ai/ha) was 95.

On to `C=CCNC(=O)c1cccc(NC(=O)c2cc(C(C)(C)C)nn2CC)c1` [Compound 46], for which the “Chickweed plant response rating” value with chickweed (Postemergence, scale 0 to 100) amounted to 100. Also, the results for the “Plant response rating, Chickweed” value in the assay on chickweed (setting [5]), in the assay with chickweed (setting [1]) and with chickweed (setting [3]) were 70, 80 and 70, respectively. Besides, the “Plant response rating (0 = no effect, 100 = complete control), Johnsongrass” value in the assay on johnsongrass (62 g ai/ha, preemergence) came out at 50. The “Plant response rating, Johnsongrass” value was found to be 80 with johnsongrass (setting [10]), 90 with johnsongrass (setting [8]), 60 in the assay with johnsongrass (setting [5]) and 60 in the assay with johnsongrass (setting [3]). For the same compound, the “Johnsongrass plant response rating” value was 90 in the assay on johnsongrass (setting [4]) and 100 in the assay with johnsongrass (setting [9]). The “Plant response rating (0 = no effect, 100 = complete control), Nightshade” value with eastern black nightshade (62 g ai/ha, preemergence) is 90. The “Plant response rating, Nightshade” value in the assay on eastern black nightshade (setting [10]) and in the assay with eastern black nightshade (setting [8]) was 100 throughout. The “Nightshade plant response rating” value with eastern black nightshade (500 g ai/ha) is given as 100.

For the compound `CCn1nc(C(C)(C)C)cc1C(=O)Nc1cccc(SC(F)(F)F)c1` [Compound 130], the “Chickweed plant response rating” value in the assay on chickweed (Postemergence, scale 0 to 100) came out at 100. The “Plant response rating, Chickweed” value with chickweed (setting [1]) and in the assay with chickweed (setting [2]) was 100 in each case. In addition, the results for the “Johnsongrass plant response rating” value in the assay with johnsongrass (setting [4]) and in the assay with johnsongrass (setting [9]) were 40 and 80, respectively. For the same compound, the entries for the “Plant response rating, Johnsongrass” value with johnsongrass (setting [1]) and with johnsongrass (setting [2]) were 30 and 10, respectively. Further, the “Plant response rating (0 = no effect, 100 = complete control), Nightshade” value in the assay with eastern black nightshade (62 g ai/ha, preemergence) was 30. In the assay with eastern black nightshade (500 g ai/ha), the “Nightshade plant response rating” value is on record as 60.

In the case of `CCn1nc2c(c1C(=O)Nc1cc(C(=O)N(C)C)ccc1F)CCC2(C)C` [Compound 352, N-[5-[(dimethylamino)carbonyl]-2-fluorophenyl]-2-ethyl-2,4,5,6-tetrahydro-6,6-dimethyl-3-cyclopentapyrazolecarboxamide], the pest or weed control at 62 g/ha in the assay on barnyardgrass (Echinochloa crus-galli, 62 g ai/ha, scale 0 to 100 (0 no effect, 100 complete control), read-out: Barnyardgrass plant response rating) is 25%; in the assay on johnsongrass (Sorghum halepense, pre-emergence, 62 g ai/ha, preemergence, scale 0 to 100, read-out: Plant response rating, Johnsongrass), 50%; with eastern black nightshade (pre-emergence, 62 g ai/ha, preemergence, scale 0 to 100, read-out: Plant response rating, Nightshade), 0%. In addition, in the assay with barnyardgrass (Echinochloa crus-galli, 125 g ai/ha, scale 0 to 100 (0 no effect, 100 complete control), read-out: Barnyardgrass plant response rating), the pest or weed control at 125 g/ha worked out at 45%. In addition, the pest or weed control at 250 g/ha stood at 65% in the assay with barnyardgrass (Echinochloa crus-galli, 250 g ai/ha, scale of 0 to 100, 0 is no effect, 100 is complete control, read-out: Barnyardgrass plant response rating); 90% in the assay on johnsongrass (Sorghum halepense, pre-emergence, 250 g ai/ha, scale 0-100, read-out: Plant response rating, Johnsongrass); 50% in the assay with eastern black nightshade (pre-emergence, 250 g ai/ha, scale 0-100, read-out: Plant response rating, Nightshade). The pest or weed control at 500 g/ha was found to be 90% with barnyardgrass (Echinochloa crus-galli, 500 g ai/ha, visual rating after 12 to 14 days, scale 0 to 100 (0 no effect, 100 complete control), read-out: Plant response rating, Barnyardgrass); 100% with johnsongrass (Sorghum halepense, pre-emergence, 500 g ai/ha, scale 0 to 100 (0 no effect, 100 complete control), visual, 12 to 14 days, read-out: Plant response rating, Johnsongrass); 100% with eastern black nightshade (pre-emergence, 500 g ai/ha, scale 0 to 100 (0 no effect, 100 complete control), visual, 12 to 14 days, read-out: Plant response rating, Nightshade). For the same compound, in the assay on johnsongrass (125 g ai/ha, preemergence), the “Plant response rating (0 = no effect, 100 = complete control), Johnsongrass” value is listed as 90. Besides, in the assay on eastern black nightshade (125 g ai/ha, preemergence), the “Plant response rating (0 = no effect, 100 = complete control), Nightshade” value is on record as 0.

`C=Cn1nc(C(C)(C)C)cc1C(=O)Nc1cccc(C(C)=NO)c1` [Compound 114]: the “Plant response rating, Chickweed” value in the assay with chickweed (setting [1]) is 100; in the assay with chickweed (setting [6]), 80; in the assay with chickweed (setting [3]), 100. Besides, the “Plant response rating, Johnsongrass” value in the assay with johnsongrass (setting [7]) was 0; in the assay with johnsongrass (setting [10]), 30; with johnsongrass (setting [1]), 70; with johnsongrass (setting [2]), 70; in the assay with johnsongrass (setting [3]), 70. In the assay with johnsongrass (62 g ai/ha, preemergence), the “Plant response rating (0 = no effect, 100 = complete control), Johnsongrass” value was 20. Besides, the entries for the “Plant response rating, Nightshade” value in the assay with eastern black nightshade (setting [7]) and with eastern black nightshade (setting [10]) were 20 and 90, respectively. Besides, in the assay on eastern black nightshade (62 g ai/ha, preemergence), the “Plant response rating (0 = no effect, 100 = complete control), Nightshade” value is 70.

`CCc1nn(C(C)(C)C)cc1C(=O)Nc1cc(C(=O)N(CC)CC)ccc1F` [Compound 223]: the “Barnyardgrass plant response rating” value was 0 in the assay on barnyardgrass (62 g ai/ha, scale 0 to 100 (0 no effect, 100 complete control)); 0 with barnyardgrass (125 g ai/ha, scale 0 to 100 (0 no effect, 100 complete control)); 0 in the assay with barnyardgrass (250 g ai/ha, scale of 0 to 100, 0 is no effect, 100 is complete control). Further, the “Plant response rating, Barnyardgrass” value in the assay on barnyardgrass (500 g ai/ha, visual rating after 12 to 14 days, scale 0 to 100 (0 no effect, 100 complete control)) is 45. Moreover, the “Plant response rating, Johnsongrass” value in the assay with johnsongrass (setting [11]) and with johnsongrass (setting [10]) was 80 throughout. The “Plant response rating, Nightshade” value in the assay with eastern black nightshade (setting [11]) is recorded as 100; in the assay on eastern black nightshade (setting [10]), 100; in the assay on eastern black nightshade (250 g ai/ha, scale 0-100, preemergence) it was 100; with eastern black nightshade (500 g ai/ha, scale 0 to 100 (0 no effect, 100 complete control), visual, 12 to 14 days, preemergence) it was 100.
